Columns and labels:
[1] = system: subcutaneous PC-3 xenografts; experiment: Biodistribution, perfusion tracer, subcutaneous PC-3 xenograft model; type: in vivo; conditions: 5 min p.i., mean ± SD
Description: (§1) For the subcutaneous model, 5-week old female SCID mice were inoculated in the flanks with 5 × 10^6 PC-3 cells (American Type Culture Collection (ATCC), VA) in Matrigel®. The tumor size was monitored by caliper. For the generation of the orthotopic model, the PC-3-Luc cells were selected by 0.5 µg/mL puromycin twice before inoculation. The male 6-weeks SCID mice were anesthetized, the muscles of the abdomen area were cut after retracting the skin, and the prostate gland exposed. 50 μL of PC-3-Luc cell suspension at 0.5 × 10^6/mL in Matrigel® was injected into a dorsal prostatic lobe. The wound was closed in two layers and the skin was clipped. Animals were given analgesic drugs for 3 days and the tumors were monitored by an IVIS optical imaging system.
(§2) The mice were injected, monitored and dissected in the lab with the temperature of 23 °C and 17% relative humidity. All animals were awake until sacrifice. The body weight, tumor volume and tumor luminescence of the mice were recorded every three days. At four-to-seven weeks post-xenograft implantation, the mice were divided into three groups by tumor volume: <300, 300–700 and >700 mm^3 in both animal models. […] Each mouse (average weight: 20 g for female mice and 25 g for male mice) was treated with pimonidazole solution (80 mg/kg in PBS) via intraperitoneal injection. […] After an additional 1 h, the mice were injected intravenously with a PBS solution containing 10 µCi (370 kBq) of [^99mTc]NaTcO4 and 15 mg/kg Hoechst 33342. The animals were sacrificed 5 minutes later, and their tissues collected. The excised tissues were weighed, the radioactivity for each tissue was measured by γ-counter and the percentage injected dose per gram (%ID/g) was calculated for each tissue. […]
The normal PC-3 cells and PC-3-Luc were cultured in our laboratory, as per ATCC protocols, in Ham’s F-12K medium
containing 10% FBS, 2.5 mM L-glutamine, 15 mM HEPES and 0.5 mM sodium pyruvate. Cells were incubated at 37 °C
(§3) All animal experiments were performed in accordance with the NIH animal use guideline and protocol approved by the […]

[2] = system: orthotopic PC-3 xenografts; experiment: Biodistribution, perfusion tracer, orthotopic PC-3 xenograft model; type: in vivo; conditions: for blood uptake / bone uptake / brain uptake / excretion (urine and fecal material) / heart uptake / kidney uptake / large intestine uptake / liver uptake / lung uptake / muscle uptake / pancreas uptake / small intestine uptake / spleen uptake / stomach uptake / tumor uptake (perfusion): orthotopic model, 10 µCi i.v., 5 min p.i., mean ± SD
Description: as §1, §2
(§4) Establishment of Stably Transfected PC-3-Luc Cells
To generate the PC-3-Luc cells, we utilized pre-made lentivirus particles encoding luciferase and GFP (EF1a-Luciferase (firefly)-2A-GFP (Puro), AMSBIO) for transfection. Briefly, normal PC-3 cells were seeded in a 24-well plate using 0.5 mL of medium containing 0.5 × 10^5 cells/mL and incubated overnight. The medium was removed and replaced with 0.5 mL of fresh medium pre-mixed with 2.5 ȝL TransduxTM. To each well was added 2 ȝL of the lentivirus particle solution and swirled to mix. The plate was returned to the incubator and cultured for 3 days. Once the cells grew to confluence, they were harvested and transferred to larger plates (from 6-well plates to 60 mm dishes). 1.5 mL of suspended cells in PBS at a concentration of 5 × 10^6/mL was sorted by the FACS method to give the GFP positive (PC-3-Luc) cells that were returned to culture for in vitro and in vivo studies.
The normal PC-3 cells and PC-3-Luc were cultured in our laboratory, as per ATCC protocols, in Ham’s F-12K medium containing 10% FBS, 2.5 mM L-glutamine, 15 mM HEPES and 0.5 mM sodium pyruvate. Cells were incubated at 37 °C […]
as §3

[3] = biological target: T1, BB2r (gastrin-releasing peptide receptor) (Homo sapiens, UniProt P30550); experiment: In vitro competitive cell-binding, displacement of [125I-Tyr4]-Bombesin on PC-3 cells; conditions: PC-3 cells (~3×10^4), 4 °C, 40 min, RPMI 1640 pH 7.4, mean ± SEM (n = 6)
T1 construct: host or cells: PC-3 human prostate cancer cells (whole cells in suspension)
T1 sequence (P30550 whole entry): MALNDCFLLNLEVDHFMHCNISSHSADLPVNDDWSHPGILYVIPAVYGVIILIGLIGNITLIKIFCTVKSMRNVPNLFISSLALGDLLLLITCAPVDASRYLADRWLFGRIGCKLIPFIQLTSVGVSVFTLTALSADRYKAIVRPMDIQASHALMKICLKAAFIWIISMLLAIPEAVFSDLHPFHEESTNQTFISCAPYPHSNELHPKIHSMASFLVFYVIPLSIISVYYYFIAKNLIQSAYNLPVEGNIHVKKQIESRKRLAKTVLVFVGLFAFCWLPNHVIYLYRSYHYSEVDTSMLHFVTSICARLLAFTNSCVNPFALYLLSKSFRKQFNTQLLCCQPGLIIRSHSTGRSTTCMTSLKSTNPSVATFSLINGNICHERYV
Description: Data were presented as Mean ± SD/SEM as noted. […] In vitro stability studies of the radioconjugate in various buffers were analyzed by the two-tailed Student’s t-test. For comparison between the two models, analysis of the biodistribution studies, hypoxic burden and blood vessel density of tumor was carried out by a two-tailed Student’s t-test. Comparisons of the means of the BB2r-uptake, blood perfusion, hypoxic burden and blood vessel density of the tumors among the three tumor volume groups for each animal model were analyzed by one-way ANOVA. If the overall p-value was statistically significant, pairwise comparisons were adjusted using Tukey’s method. A p-value < 0.05 was considered statistically significant.
In Vitro Competitive Cell-Binding Studies […]
binding assays using PC-3 cells.
as §4
(firefly)-2A-GFP (Puro), AMSBIO) for transfection.
The medium was removed and replaced with 0.5 […]
and swirled to mix. […] Once the cells grew to confluence, they […]
1.5 mL of suspended cells in PBS at […]
to culture for in vitro and in vivo studies.
Cells were incubated at 37 °C
Development of PC-3 Xenograft SCID Mice
The tumor size was monitored during the growth by caliper measurement.
Development of PC-3 Orthotopic SCID mice […]
clips. […] The animals were monitored continuously for the following weeks. […]

[4] = tumor volume 300-700 mm^3, 10 µCi i.v.
[5] = tumor volume <300 mm^3, 10 µCi i.v.
[6] = tumor volume >700 mm^3, 10 µCi i.v.

## [Na+].[O]=[Tc](=[O])(=[O])[O-] [[^99mTc]TcO4^−, sodium pertechnetate]
[1]; [4]
  blood uptake: 0.88 ± 0.34 %ID/g
  bone uptake: 0.16 ± 0.06 %ID/g
  brain uptake: 0.03 ± 0.02 %ID/g
  excretion (urine and fecal material): 85.78 ± 9.65 %ID
  heart uptake: 0.22 ± 0.11 %ID/g
  kidney uptake: 0.53 ± 0.19 %ID/g
  large intestine uptake: 0.43 ± 0.47 %ID/g
  liver uptake: 0.41 ± 0.19 %ID/g
  lung uptake: 0.49 ± 0.21 %ID/g
  muscle uptake: 0.11 ± 0.04 %ID/g
  pancreas uptake: 3.30 ± 2.30 %ID/g
  small intestine uptake: 0.61 ± 0.43 %ID/g
  spleen uptake: 0.87 ± 0.74 %ID/g
  stomach uptake: 2.41 ± 1.25 %ID/g
  tumor uptake (perfusion): 0.68 ± 0.49 %ID/g
[1]; [5]
  blood uptake: 1.01 ± 0.06 %ID/g
  bone uptake: 0.34 ± 0.27 %ID/g
  brain uptake: 0.06 ± 0.04 %ID/g
  excretion (urine and fecal material): 83.64 ± 9.63 %ID
  heart uptake: 0.40 ± 0.24 %ID/g
  kidney uptake: 0.66 ± 0.33 %ID/g
  large intestine uptake: 0.44 ± 0.35 %ID/g
  liver uptake: 0.67 ± 0.43 %ID/g
  lung uptake: 0.74 ± 0.27 %ID/g
  muscle uptake: 0.19 ± 0.11 %ID/g
  pancreas uptake: 2.26 ± 1.95 %ID/g
  small intestine uptake: 0.52 ± 0.38 %ID/g
  spleen uptake: 1.35 ± 1.21 %ID/g
  stomach uptake: 2.26 ± 1.06 %ID/g
  tumor uptake (perfusion): 0.51 ± 0.31 %ID/g
[1]; [6]
  blood uptake: 2.61 ± 1.54 %ID/g
  bone uptake: 0.34 ± 0.31 %ID/g
  brain uptake: 0.06 ± 0.05 %ID/g
  excretion (urine and fecal material): 82.76 ± 12.78 %ID
  heart uptake: 0.43 ± 0.38 %ID/g
  kidney uptake: 1.11 ± 0.92 %ID/g
  large intestine uptake: 0.53 ± 0.53 %ID/g
  liver uptake: 0.85 ± 0.77 %ID/g
  lung uptake: 1.24 ± 1.00 %ID/g
  muscle uptake: 0.21 ± 0.20 %ID/g
  pancreas uptake: 6.22 ± 6.53 %ID/g
  small intestine uptake: 0.53 ± 0.43 %ID/g
  spleen uptake: 0.43 ± 0.51 %ID/g
  stomach uptake: 3.03 ± 2.52 %ID/g
  tumor uptake (perfusion): 0.86 ± 0.37 %ID/g
[1]; tumor volume >700 mm^3, 10 µCi i.v., listed as [99mTc]TcO4-
  tumor uptake (perfusion): 0.86 ± 0.35 %ID/g
[2]; Table S1
  stomach uptake, orthotopic versus subcutaneous model: approximately 8 fold
[2]; across tumor volume groups
  tumor perfusion, orthotopic versus subcutaneous model: 3.7–4.3 fold
[2]; tumor volume 300-700 mm^3
  blood uptake: 3.51 ± 1.28 %ID/g
  bone uptake: 1.27 ± 0.68 %ID/g
  brain uptake: 0.18 ± 0.18 %ID/g
  excretion (urine and fecal material): 37.55 ± 14.08 %ID
  heart uptake: 1.20 ± 0.63 %ID/g
  kidney uptake: 2.25 ± 2.25 %ID/g
  large intestine uptake: 2.24 ± 0.57 %ID/g
  liver uptake: 2.92 ± 0.95 %ID/g
  lung uptake: 2.78 ± 1.27 %ID/g
  muscle uptake: 0.59 ± 0.18 %ID/g
  pancreas uptake: 5.17 ± 5.32 %ID/g
  small intestine uptake: 1.36 ± 0.45 %ID/g
  spleen uptake: 1.70 ± 1.20 %ID/g
  stomach uptake: 19.15 ± 6.40 %ID/g
  tumor uptake (perfusion): 2.94 ± 0.76 %ID/g
[2]; tumor volume <300 mm^3
  blood uptake: 3.13 ± 1.02 %ID/g
  bone uptake: 1.10 ± 0.73 %ID/g
  brain uptake: 0.14 ± 0.04 %ID/g
  excretion (urine and fecal material): 39.51 ± 22.40 %ID
  heart uptake: 1.29 ± 0.61 %ID/g
  kidney uptake: 1.85 ± 0.91 %ID/g
  large intestine uptake: 1.52 ± 0.36 %ID/g
  liver uptake: 2.51 ± 0.73 %ID/g
  lung uptake: 2.86 ± 1.06 %ID/g
  muscle uptake: 0.47 ± 0.20 %ID/g
  pancreas uptake: 4.94 ± 4.84 %ID/g
  small intestine uptake: 1.31 ± 0.31 %ID/g
  spleen uptake: 2.84 ± 1.87 %ID/g
  stomach uptake: 16.33 ± 4.08 %ID/g
  tumor uptake (perfusion): 2.23 ± 1.09 %ID/g
[2]; tumor volume >700 mm^3
  blood uptake: 3.96 ± 0.90 %ID/g
  bone uptake: 0.85 ± 0.49 %ID/g
  brain uptake: 0.16 ± 0.07 %ID/g
  excretion (urine and fecal material): 46.43 ± 13.26 %ID
  heart uptake: 1.79 ± 0.87 %ID/g
  kidney uptake: 1.45 ± 0.64 %ID/g
  large intestine uptake: 2.14 ± 0.55 %ID/g
  liver uptake: 3.02 ± 0.77 %ID/g
  lung uptake: 3.34 ± 0.84 %ID/g
  muscle uptake: 0.63 ± 0.24 %ID/g
  pancreas uptake: 4.03 ± 3.24 %ID/g
  small intestine uptake: 1.32 ± 0.78 %ID/g
  spleen uptake: 1.80 ± 1.37 %ID/g
  stomach uptake: 15.44 ± 3.98 %ID/g
  tumor uptake (perfusion): 3.19 ± 0.66 %ID/g
[2]; tumor volume 300–700 mm^3, p = 0.0001
  average tumor uptake of perfusion tracer, orthotopic versus subcutaneous model: 4.3 fold
[2]; tumor volume <300 mm^3, p = 0.0008
  average tumor uptake of perfusion tracer, orthotopic versus subcutaneous model: 4.1 fold
[2]; tumor volume >700 mm^3, p = 0.0001
  average tumor uptake of perfusion tracer, orthotopic versus subcutaneous model: 3.7 fold

## CSCC[C@H](NC(=O)[C@H](CC(C)C)NC(=O)[C@H](Cc1c[nH]cn1)NC(=O)CNC(=O)[C@@H](NC(=O)[C@H](C)NC(=O)[C@H](Cc1c[nH]c2ccccc12)NC(=O)[C@H](CCC(N)=O)NC(=O)CCOCCOCCOCCOCCNC(=O)[C@@H](CO)NC(=O)[C@@H](CO)NC(=O)[C@@H](CO)NC(=O)[C@@H](CO)NC(=O)[C@@H](CO)NC(=O)CN1CCN(CC(=O)O)CCN(CC(=O)O)CCN(CC(=O)O)CC1)C(C)C)C(N)=O [DOTA-SP714, DOTA-(D)S-(D)S-(D)S-(D)S-(D)S-PEG3–BBN(7–14)NH2]
[3]
  IC50: 9.8 ± 1.7 nM

Source: PMC6668441, “Comparative Study of Subcutaneous and Orthotopic Mouse Models of Prostate Cancer: Vascular Perfusion, Vasculature Density, Hypoxic Burden and BB2r-Targeting Efficacy” (Scientific Reports, 2019)
